Test results reported in patent publication US20150297738A1, “CONJUGATES COMPRISING HYDROXYALKYL STARCH AND A CYTOTOXIC AGENT AND PROCESS FOR THEIR PREPARATION” (Fresenius Kabi Deutschland GmbH, priority 2010, published 2015).
Marks after values point to notes of the source that are not given here.

Assays:
Format in all cases: in vivo, NMRI:nu/nu mice
[1] = system: human breast carcinoma MT-3; assay: Tumor growth inhibition (RTV, T/C) in the MT-3 xenograft mouse tumor model; conditions: for Tumor volume cm^3/d31: day 31; for Tumor volume cm^3/d27: day 27
[2] = Body weight change as sign of toxicity in tumor-bearing mice (docetaxel/paclitaxel studies; MT-3, PC3, A549 models)
Experimental: (§1) Tumor growth inhibition was used as therapeutic parameter. Additionally, body weight change was determined as signs for toxicity (particularly, potential hematological or gastrointestinal side effects).
Individual body weights of mice were determined twice weekly and mean body weight per group was related to the initial value in percent (body weight change, BWC), see tables in appendix.
Descriptive statistics was performed on the data of body weight and tumor volume. […] Statistical evaluation was performed with the U-test of Mann and Whitney with a significance level of p≦0.05, using the Windows program […] 6.
Tables 18 to 24 summarize the results for the tested Docetaxel conjugates and the reference compound Taxotere®. […] The loss of body weight is known to be an indicator of gastro-intestinal and hepatotoxicity of the tested compound.
The tables show, inter alia, i) the tested compounds, ii) the tumor volume in mice at the day the control group was sacrificed (in cm^3), iii) the lowest value of the relative tumor volume vs. the relative tumor volume of the control group (RTV T/C) together with the day, when this optimum was reached, iv) the maximum body weight loss in mice together with the day, when this minimum was reached. The loss of body weight is known to be an indicator of gastro-intestinal and hepatotoxicity of the tested compound.

[3] = system: human prostate carcinoma PC3; assay: Tumor growth inhibition (RTV, T/C) in the PC3 xenograft mouse tumor model; conditions: Table 20; conjugates 1 × 75 mg/kg d6, Docetaxel 5 mg/kg d6-10; i.v.
Experimental: Each measurement was carried out with a group of 8 mice. The conjugates CDc1, CDc4 and CDc5 were administered once at a dosage of 75 mg/kg body weight on day 6. Taxotere® was administered 5 times at a dosage of 5 mg/kg body weight at days 6 to 10. Median values are given.
(§2) Adult male and female immunodeficient mice NMRI:nu/nu mice (TACONIC Europe, Lille Skensved, Denmark) were used throughout the study.
(§3) The animals were randomly assigned to various experimental groups with 6 to 8 mice each. At treatment initiation the ears of the animals were marked and each cage was labeled with the cage number, study number and animal number per cage.
(§4) The tumor lines A549, PC-3 and MT3 are lines which are commonly used for testing new anticancer drugs or novel therapeutic therapies. A549, PC-3 and MT3 xenografts are growing relatively fast and uniform.
(§5) Tumor cells were thawed and grown under in vitro conditions. […]
as §1
(§6) Tumor diameters were measured twice weekly with a caliper. Tumor volumes were calculated according to V=(length×(width)^2)/2. […] At each measurement day the median and mean tumor volumes per group and also the treated to control (T/C) values in percent were calculated. […]

[4] = system: human lung carcinoma A549; assay: Tumor growth inhibition (RTV, T/C) in the A549 xenograft mouse tumor model; conditions: Table 21, conjugates 1 × 75 mg/kg d8, Docetaxel 5 mg/kg d8-12, i.v.
Experimental: Each measurement was carried out with a group of 8 mice. The conjugates CDc1, CDc4 and CDc5 were administered once at a dosage of 75 mg/kg body weight on day 8. Taxotere® was administered 5 times at a dosage of 5 mg/kg body weight at days 8 to 12. Median values are given.
as §2, §3, §4, §5, §1, §6

[5] = system: human pancreas carcinoma ASPC-1; assay: Tumor growth inhibition (RTV, T/C) in the ASPC-1 s.c. xenotransplantation model; conditions: Table 27, ASPC-1; day 27; 60 mg/kg/inj., treatment d 7, 15, 21
Text: At treatment initiation the ears of the animals were marked and each cage was labeled with the cage number, study number and animal number per cage.
The human pancreas carcinoma ASPC-1 was used as s.c. xenotransplantation model in immunodeficient female NMRI:nu/nu mice.
They were thawed, expanded in vitro and transplanted as cell suspension subcutaneously (s.c.) in female NMRI:nu/nu mice. The tumor line ASPC-1 is used for testing new anticancer drugs or novel therapeutic strategies. It was therefore selected for this study.
For experimental use 10^7 tumor cells/mouse from the in vitro passage were transplanted s.c. into the flank of each of 10 mice/group at day 0.
At palpable tumor size (30-100 mm^3) treatment started. The application volume was 0.2 ml/20 g mouse body weight. The test compounds, the vehicle controls and the reference compounds were all given intravenously (i.v.).
as §1
Tumor diameters were measured twice weekly with a caliper. Tumor volumes were calculated according to V=(length×(width)^2)/2. For calculation of the relative tumor volume (RTV) the tumor volumes at each measurement day were related to the day of first treatment. […]

[6] = Body weight change as sign of toxicity in mice bearing ASPC-1 xenografts (gemcitabine study); conditions: Table 27, ASPC-1; 60 mg/kg/inj., treatment d 7, 15, 21; day in parentheses
Experimental: as §1
Individual body weights of mice were determined twice weekly and mean body weight per group was related to the initial value in percent (body weight change, BWC).
Descriptive statistics were performed on the data of body weight and tumor volume. […] Statistical evaluation was performed with the U-test of Mann and Whitney with a significance level of p≦0.05, using the Windows program […] 6.

[7] = Table 23, conjugates 1 × 75 mg/kg d7, Docetaxel 5 mg/kg d7-11, i.v.
[8] = Table 25, MT-3, 12.5 mg/kg/inj. d 7-9, 10 mg/kg/inj. d 10-11

CC(=O)O[C@@]12CO[C@@H]1C[C@H](O)[C@@]1(C)C(=O)[C@H](O)C3=C(C)[C@@H](OC(=O)[C@H](O)[C@@H](NC(=O)OC(C)(C)C)c4ccccc4)C[C@@](O)([C@@H](OC(=O)c4ccccc4)[C@H]21)C3(C)C [Docetaxel, docetaxel]
Tumor volume cm^3/d31 ([1]; Table 18, conjugates 1 × 100 mg/kg d7, Docetaxel 10 mg/kg d7, 9, 11, i.v.): 0.18 +/− 0.10 cm^3 | RTV T/C (%) Optimum (at day) ([1]; Table 18, lowest RTV vs control, conjugates 1 × 100 mg/kg d7, Docetaxel 10 mg/kg d7, 9, 11, i.v.): 10.7% | RTV T/C (%) Optimum (at day) ([1]; Table 19, conjugates 1 × 75 mg/kg d11, Docetaxel 5 mg/kg d11-15, i.v.): 54.0% | Tumor volume cm^3/d26 ([1]; Table 19, day 26, conjugates 1 × 75 mg/kg d11, Docetaxel 5 mg/kg d11-15, i.v.): 0.815 +/− 0.383* cm^3 | RTV T/C (%) Optimum (at day) ([1]; Table 22, conjugates 1 × 75 mg/kg d11, Docetaxel 5 mg/kg d11-15, i.v.): 31.8% | Tumor volume cm3/d25 ([1]; Table 22, day 25, conjugates 1 × 75 mg/kg d11, Docetaxel 5 mg/kg d11-15, i.v.): 0.517 +/− 0.202* cm3 | RTV T/C (%) Optimum (at day) [1, 7]: 43.0% | Tumor volume cm^3/d27 [1, 7]: 0.873 +/− 0.390* cm^3 | RTV T/C (%) Optimum (at day) ([1]; Table 24, MT-3, 5 mg/kg/inj., treatment d 8-12, day of optimum in parentheses below): 23.1% | Tumor volume cm^3/d27 ([1]; Table 24, MT-3, 5 mg/kg/inj., treatment d 8-12): 0.542 +/− 0.353* cm^3 | Toxic deaths (at day) ([2]; Table 18, MT-3 model, conjugates 1 × 100 mg/kg d7, Docetaxel 10 mg/kg d7, 9, 11, i.v., 8 mice per group): 4 | Toxic death (at day) ([2]; Table 23, MT-3 model, conjugates 1 × 75 mg/kg d7, Docetaxel 5 mg/kg d7-11, i.v.): 0 | BWC [%] (at day) ([2]; mouse, in vivo, 5 mg/kg): −11% | RTV T/C (%) Optimum (at day) [3]: 2.6% | RTV T/C (%) Optimum (at day) [4]: 32.3% | Tumor volume cm^3/d42 ([4]; day 42): 0.334 +/− 0.207* cm^3

Nc1ccn([C@@H]2O[C@H](CO)[C@@H](O)C2(F)F)c(=O)n1 [Gemcitabine, gemcitabine]
d27 [head truncated; T/C in percent] [5]: 53.3% | [%] (at day) [head truncated; BWC] [6]: −2.4 (9) %

CC(=O)O[C@H]1C(=O)[C@@]2(C)[C@H]([C@H](OC(=O)c3ccccc3)[C@]3(O)C[C@H](OC(=O)[C@H](O)[C@@H](NC(=O)c4ccccc4)c4ccccc4)C(C)=C1C3(C)C)[C@]1(OC(C)=O)CO[C@@H]1C[C@@H]2O [Paclitaxel, paclitaxel]
RTV T/C (%) Optimum (at day) [1, 8]: 21.5% | Tumor volume cm^3/d31 [1, 8]: 0.41 +/− 0.21* cm^3 | Tumor volume cm^3/d31 ([1]; Table 26, MT-3, 10 mg/kg/inj., treatment d 10-14): 0.673 +/− 0.226* cm^3 | BWC [%] (at day) ([2]; Table 25, MT-3 model, 12.5 mg/kg/inj. d 7-9, 10 mg/kg/inj. d 10-11): −15% | Toxic deaths (at day) ([2]; Table 25, MT-3 model, 12.5 mg/kg/inj. d 7-9, 10 mg/kg/inj. d 10-11, number of mice): 1 | BWC [%] (at day) ([2]; Table 26, MT-3 model, 10 mg/kg/inj., treatment d 10-14): −18% | Toxic deaths (at day) ([2]; Table 26, MT-3 model, 10 mg/kg/inj., treatment d 10-14, number of mice): 0
